Reference: US11649236B2, “Polycyclic carbamoylpyridone derivative” (Shionogi & Co., Ltd., priority 2018, dated 2023)

Tested on: HIV
Assay: Anti-HIV activity (MT-4 cells, MTT)
Type: cell-based
Settings: Human immunodeficiency virus 1, MT4, 96 h, cultured 4 days
Description: Serial dilutions of a test sample were prepared in a 96-well microplate (50 μL/well). 2.5×10^5 cells/mL of a MT-4 cell suspension was dispensed at 100 μL/well to the plate containing the test sample. Then, an HIV virus solution was dispensed at 50 μL/well. The plate was mixed with a plate mixer and cultured for 4 days in a CO2 incubator. An MTT (3-(4,5-dimethylthiazol-2-yl)-2,5-diphenyltetrazolium bromide) solution was dispensed at 30 μL/well. The plate was reacted for 1 hour in a CO2 incubator. 150 μL of the supernatant was removed from each well so as not to take up the cells. 150 μL of a cell lysis solution was added to each well and well mixed with a plate mixer until the cells were completely lysed. The absorbance of the mixed plate was measured at two wavelengths of 560 nm and 690 nm with a microplate reader.

Row | Structure (SMILES) | EC50 [nM]
1 | CCN1C(=O)c2c(O)c(=O)c(C(=O)NCc3c(F)cc(F)cc3OC)cn2N2CCCC[C@@H]12 [II-035] | 1.3
2 | C[C@@H]1CCN2[C@@H](C1)N(C)C(=O)c1c(O)c(=O)c(C(=O)NCc3cccc(Cl)c3F)cn12 [II-036] | 3.8
3 | CCN1C(=O)c2c(O)c(=O)c(C(=O)NCc3ccc(F)cc3F)cn2N2C[C@H]3C[C@H](C3)[C@@H]12 [II-037] | 0.64
4 | CCN1C(=O)c2c(O)c(=O)c(C(=O)NCc3ccc(F)cc3F)cn2N2[C@@H](COC)CC[C@@H]12 [II-038] | 2
5 | CCN1C(=O)c2c(O)c(=O)c(C(=O)NCc3ccc(F)cc3F)cn2N2CCC(C)(C)C[C@@H]12 [II-039] | 2.9
6 | C[C@H](N1C(=O)c2c(O)c(=O)c(C(=O)NCc3ccc(F)cc3F)cn2N2CCCC[C@@H]12)C(F)(F)F [II-043] | 1.4
7 | CCN1C(=O)c2c(O)c(=O)c(C(=O)NCc3c(F)cc(F)cc3F)cn2N2CC[C@@H](C)C[C@@H]12 [II-044] | 0.84
8 | CN1C(=O)c2c(O)c(=O)c(C(=O)NCc3ccc(Cl)cc3F)cn2N2CCCC[C@@H]12 [II-045] | 2
9 | C[C@@H]1CC[C@H]2N(C)C(=O)c3c(O)c(=O)c(C(=O)NCc4cccc(Cl)c4F)cn3N12 [II-047] | 0.57
10 | CCN1C(=O)c2c(O)c(=O)c(C(=O)NCc3c(F)ccc(C#N)c3F)cn2N2CCCC[C@@H]12 [II-050] | 2.8
11 | CCN1C(=O)c2c(O)c(=O)c(C(=O)NCc3ccc(F)cc3F)cn2N2C[C@H](C)CC[C@@H]12 [II-052] | 0.62
12 | CCN1C(=O)c2c(O)c(=O)c(C(=O)NCc3c(F)cc(F)cc3F)cn2N2[C@H](C)CCC[C@@H]12 [II-053] | 1.4
13 | Cc1c(F)ccc(CNC(=O)c2cn3c(c(O)c2=O)C(=O)N(C)[C@@H]2CCCCN23)c1F [II-054] | 0.34
14 | CCN1C(=O)c2c(O)c(=O)c(C(=O)NCc3ccc(F)cc3F)cn2N2CC[C@H](COC)C[C@@H]12 [II-055] | 0.58
15 | CCN1C(=O)c2c(O)c(=O)c(C(=O)NCc3ccc(F)nc3F)cn2N2C[C@@H]3CC[C@@H](C3)[C@@H]12 [II-056] | 0.83
16 | CCN1C(=O)c2c(O)c(=O)c(C(=O)NCc3ccc(F)nc3F)cn2N2CCCC[C@@H]12 [II-057] | 1.7
17 | C[C@H]1CCN2[C@@H](C1)N(C)C(=O)c1c(O)c(=O)c(C(=O)NCc3cccc(Cl)c3F)cn12 [II-058] | 0.79
18 | CCN1C(=O)c2c(O)c(=O)c(C(=O)NCc3ccc(F)cc3F)cn2N2C[C@H](OC)CC[C@@H]12 [II-059] | 0.66
19 | C[C@H]1CCN2[C@@H](C1)N(C)C(=O)c1c(O)c(=O)c(C(=O)NCc3ccc(Cl)cc3F)cn12 [II-061] | 3.4
20 | CCN1C(=O)c2c(O)c(=O)c(C(=O)NCc3ccnc(Cl)c3F)cn2N2CCCC[C@@H]12 [II-062] | 3.2
21 | CN1C(=O)c2c(O)c(=O)c(C(=O)NCc3cccc(Cl)c3F)cn2N2Cc3ccccc3[C@@H]12 [II-063] | 3.6
22 | CC(C)N1C(=O)c2c(O)c(=O)c(C(=O)NCc3c(F)cc(F)cc3F)cn2N2CC[C@@H](C)C[C@@H]12 [II-064] | 1.2
23 | C[C@H]1C[C@H]2N(C)C(=O)c3c(O)c(=O)c(C(=O)NCc4ccc(Cl)cc4F)cn3N2C1 [II-065] | 4.9
24 | CCN1C(=O)c2c(O)c(=O)c(C(=O)NCc3ccc(F)cc3F)cn2N2CCC3(C[C@@H]12)OCCO3 [II-067] | 0.62

Row | Structure (SMILES) | EC50 [nM]
25 | CCN1C(=O)c2c(O)c(=O)c(C(=O)NCc3ccc(F)cc3F)cn2N2[C@H](C)CC[C@@H]12 [II-068] | 0.61
26 | CCN1C(=O)c2c(O)c(=O)c(C(=O)NCc3c(F)cc(F)cc3F)cn2N2CC[C@H](C)C[C@@H]12 [II-069] | 0.9
27 | CCN1C(=O)c2c(O)c(=O)c(C(=O)NCc3ccc(F)cc3F)cn2N2CC[C@H](C)[C@@H]12 [II-073] | 0.25
28 | CN1C(=O)c2c(O)c(=O)c(C(=O)NCc3ccc(F)c(F)c3F)cn2N2CCCC[C@@H]12 [II-074] | 0.71
29 | C[C@@H]1CCN2[C@@H](C1)N(C)C(=O)c1c(O)c(=O)c(C(=O)NCc3ccc(Cl)cc3F)cn12 [II-075] | 6.3
30 | CCN1C(=O)c2c(O)c(=O)c(C(=O)NCc3ncc(Cl)cc3F)cn2N2CCCC[C@@H]12 [II-076] | 3.3
31 | CCN1C(=O)c2c(O)c(=O)c(C(=O)NCc3ccc(F)cc3F)cn2N2[C@@H]3CCC[C@@H]3CC[C@@H]12 [II-078] | 1.1
32 | CCN1C(=O)c2c(O)c(=O)c(C(=O)NCc3ccc(F)cc3F)cn2N2Cc3ccc(F)cc3[C@@H]12 [II-079] | 0.66
33 | CCN1C(=O)c2c(O)c(=O)c(C(=O)NCc3c(F)ccc(F)c3F)cn2N2CCCC[C@@H]12 [II-080] | 0.58
34 | CCN1C(=O)c2c(O)c(=O)c(C(=O)NCc3ccc(F)nc3F)cn2N2CC[C@H](C)C[C@@H]12 [II-081] | 3.1
35 | CCN1C(=O)c2c(O)c(=O)c(C(=O)NCc3c(F)cccc3F)cn2N2CCCC[C@@H]12 [II-082] | 0.74
36 | CCN1C(=O)c2c(O)c(=O)c(C(=O)NCc3ccc(F)cc3F)cn2N2C[C@@H]3C[C@@H]3[C@@H]12 [II-083] | 0.95
37 | CCN1C(=O)c2c(O)c(=O)c(C(=O)NCc3ccc(F)cc3F)cn2N2Cc3ccc(Cl)cc3[C@@H]12 [II-084] | 1.8
38 | CCN1C(=O)c2c(O)c(=O)c(C(=O)NCc3ccc(F)cc3F)cn2N2CCC(C)(C)[C@@H]12 [II-085] | 1.3
39 | C[C@@H]1CCN2[C@@H](C1)N(C)C(=O)c1c(O)c(=O)c(C(=O)NCc3ccc(F)cc3F)cn12 [II-086] | 1
40 | CCN1C(=O)c2c(O)c(=O)c(C(=O)NCc3ccc(F)cc3F)cn2N2CCN(CCOC)C[C@@H]12 [II-088] | 3.1
41 | CC[C@@H]1CC[C@H]2N(CC)C(=O)c3c(O)c(=O)c(C(=O)NCc4ccc(F)cc4F)cn3N12 [II-089] | 0.94
42 | C[C@@H]1CCC[C@H]2N(C)C(=O)c3c(O)c(=O)c(C(=O)NCc4ccc(Cl)cc4F)cn3N12 [II-091] | 4.1
43 | CCN1C(=O)c2c(O)c(=O)c(C(=O)NCc3ccccc3F)cn2N2CCCC[C@@H]12 [II-092] | 0.33
44 | C[C@@H]1CCC[C@H]2N(C)C(=O)c3c(O)c(=O)c(C(=O)NCc4c(F)cc(F)cc4F)cn3N12 [II-094] | 0.57
45 | CCN1C(=O)c2c(O)c(=O)c(C(=O)NCc3ncc(F)cc3Cl)cn2N2CCCC[C@@H]12 [II-095] | 1.9
46 | CCN1C(=O)c2c(O)c(=O)c(C(=O)NCc3ccc(F)cc3F)cn2N2CCOCC[C@@H]12 [II-096] | 0.68
47 | CCN1C(=O)c2c(O)c(=O)c(C(=O)NCc3c(F)cc(F)cc3F)cn2N2Cc3ccccc3[C@@H]12 [II-097] | 1
48 | CCN1C(=O)c2c(O)c(=O)c(-c3nnc(Cc4ncc(Cl)cc4F)s3)cn2N2CCCC[C@@H]12 [II-098] | 4

Row | Structure (SMILES) | EC50 [nM]
49 | CCN1C(=O)c2c(O)c(=O)c(C(=O)NCc3ccc(F)cc3F)cn2N2CCN(Cc3ccccc3)C[C@@H]12 [II-100] | 3
50 | CCN1C(=O)c2c(O)c(=O)c(C(=O)NCc3ccc(F)cc3F)cn2N2CCN(CC3CC3)C[C@@H]12 [II-101] | 1.6
51 | CN1C(=O)c2c(O)c(=O)c(C(=O)NCc3ccnc(Cl)c3F)cn2N2CCCC[C@@H]12 [II-103] | 3.7
52 | CCN1C(=O)c2c(O)c(=O)c(C(=O)NCc3ccc(F)cc3F)cn2N2CCCOC[C@@H]12 [II-107] | 2.3
53 | CCN1C(=O)c2c(O)c(=O)c(C(=O)NCc3ccc(F)cc3F)cn2N2CC=C[C@@H]12 [II-109] | 2.4
54 | CCN1C(=O)c2c(O)c(=O)c(C(=O)NCc3ccc(F)cc3F)cn2N2CCN(C(=O)NC)C[C@@H]12 [II-110] | 2.1
55 | C[C@H]1CCN2[C@@H](C1)N(C)C(=O)c1c(O)c(=O)c(C(=O)NCc3ccc(F)cc3F)cn12 [II-113] | 0.72
56 | CCN1C(=O)c2c(O)c(=O)c(C(=O)NCc3ccc(F)cc3F)cn2N2CC[C@H](C(F)(F)F)C[C@@H]12 [II-114] | 1.5
57 | CN1C(=O)c2c(O)c(=O)c(C(=O)NCc3c(F)cc(F)cc3F)cn2N2C[C@@H]3CC[C@@H](O3)[C@@H]12 [II-115] | 0.87
58 | CN1C(=O)c2c(O)c(=O)c(C(=O)NCc3ccc(F)cc3F)cn2N2Cc3ccccc3[C@@H]12 [II-116] | 0.68
59 | C[C@H]1CC[C@H]2N(C)C(=O)c3c(O)c(=O)c(C(=O)NCc4ccc(F)cc4F)cn3N2C1 [II-117] | 2
60 | CCN1C(=O)c2c(O)c(=O)c(C(=O)NCc3ccc(F)cc3F)cn2N2C3CCC(CC3)[C@@H]12 [II-118] | 2.2
61 | COC[C@@H]1CC[C@H]2N(C)C(=O)c3c(O)c(=O)c(C(=O)NCc4ccc(F)cc4F)cn3N12 [II-119] | 0.54
62 | CN1C(=O)c2c(O)c(=O)c(C(=O)NCc3c(F)cc(F)cc3F)cn2N2Cc3ccccc3[C@@H]12 [II-120] | 0.22
63 | C[C@H]1C[C@H]2N(C)C(=O)c3c(O)c(=O)c(C(=O)NCc4ccc(F)cc4F)cn3N2C1 [II-121] | 0.71
64 | CN1C(=O)c2c(O)c(=O)c(C(=O)NCc3ccc(F)cc3F)cn2N2C[C@@H]3CC[C@@H](C3)[C@@H]12 [II-122] | 0.61
65 | CCN1C(=O)c2c(O)c(=O)c(C(=O)NCc3ccc(F)cc3F)cn2N2C[C@H](C)C[C@@H]12 [II-123] | 1.6
66 | CCN1C(=O)c2c(O)c(=O)c(C(=O)NCc3ccc(F)cc3F)cn2N2Cc3cc(Cl)ccc3[C@@H]12 [II-124] | 2.6
67 | CCN1C(=O)c2c(O)c(=O)c(C(=O)NCc3ccc(F)cc3F)cn2N2CCN(C(=O)OC)C[C@@H]12 [II-125] | 1.3
68 | CCN1C(=O)c2c(O)c(=O)c(C(=O)NCc3ccc(F)cc3F)cn2N2C[C@@H](OC)CC[C@@H]12 [II-126] | 0.45
69 | CCN1C(=O)c2c(O)c(=O)c(C(=O)NCc3ccccc3OC(F)F)cn2N2CCCC[C@@H]12 [II-127] | 3.6
70 | CCN1C(=O)c2c(O)c(=O)c(C(=O)NCc3ccc(F)cc3F)cn2N2Cc3cc(F)ccc3[C@@H]12 [II-128] | 0.72
71 | CCN1C(=O)c2c(O)c(=O)c(C(=O)NCc3ccccc3OC)cn2N2CCCC[C@@H]12 [II-129] | 1.9
